IC50, Activity and mortality data for 32 compounds are collected here from ChEMBL document CHEMBL5370555, “Design, synthesis, and evaluation of PD-1/PD-L1 small-molecule inhibitors bearing a rigid indane scaffold” (Eur J Med Chem, 2023).

SMILES strings stand for the structures. The source made the active and inactive calls. The calls are words filed in the database; no cut-off is given here.

Series [1] addresses Programmed cell death protein 1/Programmed cell death 1 ligand 1 (Homo sapiens, UniProt Q15116+Q9NZQ7). The series can be described thus: Inhibition of PD-1/PD-L1 (unknown origin) protein-protein interaction incubated for 15 mins by TR-FRET assay. The class given is protein-complex assay.
Series [2] relates to PBMC. The series is described as follows: Cytotoxicity against human PBMC cells at < 8 uM incubated for 24 hrs by CCK-8 method. The class given is toxicity, cell-based.
Series [3] has as its system MDA-MB-231. The series can be described thus: Cytotoxicity against human MDA-MB-231 cells at 1.0 uM incubated for 24 hrs by CCK-8 method. The class given is functional, cell-based.
Series [4] relates to MDA-MB-231. The series can be described thus: Antitumor immunity against human MDA-MB-231 cells cocultured with CD3/CD28/CD2 T cell activator stimulated human PBMC cells assessed as killing activity cell mortality rate at 0.5 uM pre-treated with compound for 2 hrs followed by addition of CD3/CD28/CD2 T cell activator stimulated human PBMC cells and measured after 12 hrs relative to control. The class given is functional. The conditions noted are these: time 14 hrs.

Series [5] relates to MDA-MB-231. The series is described as follows: Antitumor immunity against human MDA-MB-231 cells cocultured with CD3/CD28/CD2 T cell activator stimulated human PBMC cells assessed as killing activity at 0.25 to 1 uM pre-treated with compound for 2 hrs followed by addition of CD3/CD28/CD2 T cell activator stimulated human PBMC cells and measured after 12 hrs. The series is classed as functional, cell-based. The conditions noted are these: dose 0.25-1 µM, time 14.0 hrs.

Series [6] deals with MDA-MB-231. The series is described as follows: Cytotoxicity against human MDA-MB-231 cells at 8 uM incubated for 24 hrs by CCK-8 method. The series is classed as functional, cell-based.
The subject of series [7] is Jurkat. The series can be described thus: Restoration of PD-L1 mediated IFN-gamma release in anti-CD3/CD28 stimulated human Jurkat cells at 0.5 uM incubated for 24 hrs by ELISA method. The class given is functional, cell-based.
The test system of series [8] is Jurkat. The series can be described thus: Cytotoxicity against human Jurkat cells at < 8 uM incubated for 24 hrs by CCK-8 method. The class given is functional, cell-based.
The test system of series [9] is Jurkat. The series is described as follows: Restoration of PD-L1 mediated IFN-gamma release in anti-CD3/CD28 stimulated human Jurkat cells incubated for 24 hrs by ELISA method. The series is classed as functional, cell-based. The conditions noted are these: dose 0.25-2 µM.
Series [10] concerns RKO. The series can be described thus: Cytotoxicity against human RKO cells at 8 uM incubated for 24 hrs by CCK-8 method. The series is classed as functional, cell-based.

Sequence of Programmed cell death protein 1/Programmed cell death 1 ligand 1 (Q15116 whole entry): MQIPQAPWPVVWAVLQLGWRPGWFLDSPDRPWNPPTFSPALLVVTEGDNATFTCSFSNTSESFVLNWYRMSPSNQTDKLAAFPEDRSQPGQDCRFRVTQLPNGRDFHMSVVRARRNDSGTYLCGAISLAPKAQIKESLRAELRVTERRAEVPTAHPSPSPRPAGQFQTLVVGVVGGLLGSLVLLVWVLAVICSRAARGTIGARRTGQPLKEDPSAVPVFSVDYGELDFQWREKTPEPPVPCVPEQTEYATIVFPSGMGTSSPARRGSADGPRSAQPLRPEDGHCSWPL
Sequence of Programmed cell death protein 1/Programmed cell death 1 ligand 1 (Q9NZQ7 whole entry): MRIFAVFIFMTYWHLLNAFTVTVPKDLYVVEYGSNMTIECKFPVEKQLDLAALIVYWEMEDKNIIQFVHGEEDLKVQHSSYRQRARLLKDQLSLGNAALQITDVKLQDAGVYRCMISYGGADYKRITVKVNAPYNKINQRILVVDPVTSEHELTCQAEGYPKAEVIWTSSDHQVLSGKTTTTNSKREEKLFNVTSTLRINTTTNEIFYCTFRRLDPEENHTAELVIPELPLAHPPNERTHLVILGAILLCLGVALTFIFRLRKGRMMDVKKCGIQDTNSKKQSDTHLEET

`COc1nc(O[C@H]2CCc3c(-c4ccc5c(c4)OCO5)cccc32)c(Cl)cc1CNCCO` displayed an IC50 in series [1] of 24.9 nM.

Take `COc1nc(O[C@H]2CCc3c(-c4ccc5ccccc5c4)cccc32)c(Cl)cc1CNCCO`: the IC50 in series [1] was over 100 nM.

As for `COc1nc(O[C@H]2CCc3c(-c4ccc5c(c4)OCCO5)cccc32)c(Cl)cc1CNC[C@@H](O)CO`, 13.3 nM corresponded to half-maximal inhibition in series [1] (IC50).

Turning to `COc1nc(O[C@H]2CCc3c(-c4ccc5c(c4)OCCO5)cccc32)c(Cl)cc1CNC[C@@H]1CCC(=O)N1`, the IC50 in series [1] is 15.7 nM.

`COc1nc(O[C@H]2CCc3c(-c4ccc(F)c(F)c4)cccc32)c(Cl)cc1CNCCO` returned an IC50 in series [1] of 55.6 nM.

`COc1nc(O[C@H]2CCc3c(-c4ccc5[nH]ccc5c4)cccc32)c(Cl)cc1CNCCO` gave an IC50 in series [1] of over 100 nM.

As for `COc1nc(O[C@H]2CCc3c(-c4ccccc4F)cccc32)c(Cl)cc1CNCCO`, the Activity result in series [2] was “Non-Toxic”; in [9] it was “Dose-Dependent Effect”. For the same compound, the result in series [3] was inactive. In series [4], the mortality at 0.5 µM stood at 40.9%. The result in series [5], in series [6], in [7], in [8] and in series [10] was Active. In series [1], this compound returned an IC50 of 2.2 nM.

Take `COc1nc(O[C@H]2CCc3c(-c4ccc5c(c4)OCCO5)cccc32)c(Br)cc1CNCCO`: in [1], the IC50 stood at 51 nM.

Consider `COc1nc(O[C@@H]2CCc3c(-c4ccccc4)cccc32)ccc1CNCCNC(C)=O`, for which the IC50 in series [1] came to 84.8 nM.

Turning to `COc1nc(O[C@H]2CCc3c(-c4ccccc4)cccc32)ccc1CNCCNC(C)=O`, in series [1], half-maximal inhibition (IC50) was put at 21 nM.

With `COc1nc(O[C@H]2CCc3c(-c4ccc5c(c4)OCCO5)cccc32)c(Cl)cc1CNCCNC(C)=O`, the IC50 in series [1] is 16.3 nM.

As to `COc1nc(O[C@H]2CCc3c(-c4ccc5c(c4)OCCO5)cccc32)c(Cl)cc1CN1CC[C@H](O)C1`, in series [1], half-maximal inhibition (IC50) required 18 nM.

The compound `COc1nc(O[C@H]2CCc3c(-c4ccc5c(c4)OCCO5)cccc32)c(Cl)cc1CN1CC[C@@H](O)C1` showed an IC50 in series [1] of 69.4 nM. Against the preceding compound, the IC50 is about 3.9-fold higher.

Take `COc1nc(O[C@H]2CCc3c(-c4ccccc4)cccc32)c(Cl)cc1CNCCO`: the IC50 in [1] came out at 7.5 nM.

Regarding `COc1nc(O[C@@H]2CCc3c(-c4ccc5c(c4)OCCO5)cccc32)c(Cl)cc1CN1CC(O)C1`, the IC50 in series [1] turned out to be 19.6 nM.

For the compound `COc1nc(O[C@H]2CCCc3c(-c4ccccc4)cccc32)ccc1CNCCNC(C)=O`, 47.6 nM corresponded to half-maximal inhibition in series [1] (IC50).

Compound `COc1nc(O[C@H]2CCc3c(-c4ccc5c(c4)OCCO5)cccc32)c(Cl)cc1CNCCN(C)C` had an IC50 in series [1] of 46.2 nM.

Turning to `COc1nc(O[C@H]2CCc3c(-c4ccc5c(c4)OCCO5)cccc32)c(Cl)cc1CNC[C@@H](O)CC(=O)O`, in series [1], the IC50 came to 14 nM. This IC50 lies about 3.3-fold lower than the previous one.

Turning to `COc1nc(O[C@H]2CCc3c(-c4ccc5c(c4)OCCO5)cccc32)c(Cl)cc1CN1CC[C@H](C(=O)O)C1`, the IC50 in series [1] was 16.4 nM.

Regarding `COc1nc(O[C@H]2CCCc3c(-c4ccccc4)cccc32)ccc1CNCCO`, the IC50 in series [1] is over 100 nM.

In series [1], `COc1cccc(-c2cccc3c2CC[C@@H]3Oc2nc(OC)c(CNCCO)cc2Cl)c1` gave an IC50 of over 100 nM.

The compound `COc1nc(O[C@H]2CCc3c(-c4ccc5c(c4)OCCO5)cccc32)c(Cl)cc1CNCC(F)(F)F` yielded an IC50 in series [1] of 67 nM.

As for `COc1nc(OCc2cccc(-c3ccccc3)c2C)ccc1CNCCNC(C)=O`, in [4], the mortality at 0.5 µM was 45.1%.

Compound `COc1nc(O[C@H]2CCc3c(-c4ccc(F)cc4)cccc32)c(Cl)cc1CNCCO` came in with an IC50 in [1] of 37.8 nM.

As to `COCCOc1cccc(-c2cccc3c2CC[C@@H]3Oc2nc(OC)c(CNCCO)cc2Cl)c1`, in series [1], the IC50 is 94.5 nM.

With `COc1ccc(-c2cccc3c2CC[C@@H]3Oc2nc(OC)c(CNCCO)cc2Cl)cc1OC`, the IC50 in [1] is over 100 nM.

As for `COc1nc(O[C@@H]2CCc3c(-c4ccccc4)cccc32)ccc1CNCCO`, in series [1], the IC50 was 57.8 nM. This lies in the double-digit nanomolar range.

With `COc1nc(O[C@H]2CCc3c(-c4cccc(F)c4)cccc32)c(Cl)cc1CNCCO`, it took 24.7 nM to reach half-maximal inhibition in series [1] (IC50).

Take `COc1nc(O[C@H]2CCc3c(-c4ccc5c(c4)OCCO5)cccc32)c(Cl)cc1CNCCC(N)=O`: the IC50 in [1] was found to be 20.3 nM.

The compound `COc1nc(O[C@H]2CCc3c(-c4ccccc4)cccc32)ccc1CNCCO` returned an IC50 in series [1] of 24.4 nM.

In series [1], `COc1nc(O[C@H]2CCc3c(-c4ccc5c(c4)OCCO5)cccc32)c(Cl)cc1CNCCO` displayed an IC50 of 10.2 nM. Against the preceding compound, the IC50 is about 2.4-fold lower.

Regarding `COCCNCc1cc(Cl)c(O[C@H]2CCc3c(-c4ccc5c(c4)OCCO5)cccc32)nc1OC`, in [1], the IC50 was found to be 43.1 nM.
